Experimental findings from the SangsterLogP compilation are described below.

A word on the logP: it is the decadic logarithm of the partition coefficient of the neutral form, usually between octanol and water. The low end stands for a more hydrophilic compound, the high end for a more lipophilic compound.

Regarding `COc1ncc(-c2ccncc2)cc1C#N`, the logP was found to be 2.02.

In the case of `Cc1nc(OCCO)c(C#N)cc1-c1ccncc1`, the logP worked out at 1.83.

In the case of `CCOc1ncc(-c2ccncc2)cc1C#N`, the logP came to 2.59.

Molecule `CC(O)COc1ncc(-c2ccncc2)cc1C#N` (centres undefined) gave a logP of 1.65.

For `N#Cc1cc(-c2ccncc2)cnc1OCCCO`, the log partition coefficient (logP) is 1.63.

Take `COCCOc1nc(C)c(-c2ccncc2)cc1C#N`: the lipophilicity (logP) was found to be 2.4.

`N#Cc1cc(-c2ccncc2)cnc1Oc1ccccc1` showed a logP of 3.09.

As for `COCCOc1nc(C)c(-c2ccccc2)cc1C#N`, the logP was determined as 3.74.

Consider `N#Cc1cc(-c2ccncc2)cnc1OCCOCCO`, for which the logP stood at 1.5.

Turning to `COc1nc(C)c(-c2ccncc2)cc1C#N`, the logP turned out to be 2.41.

`N#Cc1cc(-c2ccncc2)cnc1OCC(O)CO` (centres undefined) came in with a logP of 0.76.

For `COCCOc1ncc(-c2ccncc2)cc1C#N`, the log partition coefficient (logP) worked out at 1.96.

`Cc1nc(OCCOCCO)c(C#N)cc1-c1ccncc1`: the logP amounted to 1.81.

As to `Cc1nc(OCCO)c(C#N)cc1-c1ccccc1`, the logP came to 3.23.
